Test results from patent US20240299273A1, “MULTIPHASIC LIQUID COMPOSITIONS FOR IMPROVED DEPOSITION OF ACTIVE INGREDIENTS” (SPECIALITY OPERATIONS FRANCE, priority 2021, published 2024).

Columns and labels:
[1] = Solubility of amphiphilic compound in pure water; type: physicochemical
[2] = Compatibility / phase separation of amphiphilic compound with amphiphilic surfactant system in water (microscope, visual appearance); type: physicochemical; conditions: concentrations as in the label, SLES alone at 12 wt. %
Description: Further, in certain embodiments, the amphiphilic compound forms a separate phase from the amphiphilic surfactant system when the amphiphilic surfactant system and the amphiphilic compound are combined in water. In this respect, the separate phase is determined by combining from 5 wt. % up to 70 wt. % of a total concentration of the amphiphilic compound and the amphiphilic surfactant system, based on a total weight of the amphiphilic compound, the amphiphilic surfactant system, and water totaling 100 wt. %, with the ratio of the amphiphilic surfactant system to the amphiphilic compound ranging from 99:1 to 50:50, preferably from 90:10 to 60:40, more preferably from 80:20 to 70:30, and determining whether any objects larger than 150 nm are observed using a conventional microscope, preferably an Olympus IX71 conventional microscope, equipped with 100× oil objective.
With respect to the amphiphilic compounds being immiscible with a combination of the amphiphilic surfactant system and water, the amphiphilic compounds can form a separate phase from the amphiphilic surfactant system in water at 25° C. […]
The interfacial tension was measured using Sigma 701 tensiometer, and compatibility was observed using Olympus IX71 conventional microscope equipped with 100× oil objective, as described above.

| solubility in water [1] [wt %)] | Compound | other results |
| --- | --- | --- |
| < 1 | CCCCCCCCCCCCCCCCCC(=O)OCC[N+](C)(C)CCOC(=O)CCCCCCCCCCCCCCCCC.[Cl-] [DEEDMAC, Dimethylbis[2-[(1-oxooctadecyl)oxy]ethyl]ammonium chloride] | – |
| – | CCCCCCCCCC[N+](C)(C)CCCCCCCCCC.[Cl-] [Maquat 4450, didecyldimethylammonium chloride] | solubility in water (in words) [1]: high water solubility |
| < 1 | CCCCCCCCCCCCCOC(=O)CC(C(=O)OCCCCCCCCCCCCC)S(=O)(=O)O.[Na] (stereo not shown) [Sodium bis(tridecyl) sulfosuccinate] | – |
| – | sodium laureth sulfate [sodium laureth sulfate (SLES)] | visual appearance (FIG. 2) [2]: transparent, and therefore, no phase separation |
